Data as given in patent US10457707B2, “Substituted urea depsipeptide analogs as activators of the CLPP endopeptidase” (priority 2015, dated 2019).
Converted amounts (≈) assume the structure as drawn. Read-outs that look alike come from different tables or passages of the source. *1 amine or outer side, *2 acyl side, *3 side chain or, on linkers, in order; H or OH if unused. Where a SMILES comes first, the peptide text is derived from it. Bridges are numbered along the chain shown (N, C = ends). [ ]: non-standard residue; d: D form. The star is where a group is joined. Phe(3,5-F2) = N[C@@H](Cc1cc(F)cc(F)c1)C(=O)O; NMepT = CN[C@H](C(=O)O)[C@@H](C)OP(=O)(O)O; NH(4-OCF3-phenyl) = FC(F)(F)Oc1ccc(N*)cc1; Morpholine(3S-CO) = O=C(O)[C@@H]1COCCN1; Pro(4S-Me) = C[C@@H]1CN[C@H](C(=O)O)C1; Pro(4R-Me) = C[C@H]1CN[C@H](C(=O)O)C1; NMeaThr = CN[C@H](C(=O)O)[C@H](C)O; NH(4-Et-phenyl) = CCc1ccc(N*)cc1; NMeT = CN[C@H](C(=O)O)[C@@H](C)O; NH(4-Me-phenyl) = Cc1ccc(N*)cc1; aThr = C[C@H](O)[C@H](N)C(=O)O; CO = O=C([*:1])[*:2]

What was measured:
Sa-ClpP = target: T1, Sa-ClpP (Staphylococcus aureus, UniProt Q2G036); experiment: ADEP displacement fluorescence polarization assay (FP probe ADEP 2591); format: binding
T1 construct: made in house; host or cells: E. coli BL21(DE3)
T1 sequence (Q2G036 1-195): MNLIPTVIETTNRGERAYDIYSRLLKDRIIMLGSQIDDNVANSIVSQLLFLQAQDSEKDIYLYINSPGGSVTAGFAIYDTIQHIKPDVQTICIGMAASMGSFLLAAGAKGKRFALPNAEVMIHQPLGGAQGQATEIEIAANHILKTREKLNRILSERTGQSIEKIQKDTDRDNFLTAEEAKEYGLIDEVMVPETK
How it was run: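 Master mix of 15 μM S. aureus ClpP with 50 nM TAMRA-labelled ADEP 2591 probe in Tris-HCl pH 8.0, 2% DMSO, was pre-equilibrated 1 h, then incubated with compound 120 min at room temperature. Polarization (ex 530, em 579 nm) was normalized to 200 μM ADEP 2378 and DMSO controls; four-parameter fits, triplicate.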

[1] = tested on: Streptococcus pyogenes, ATCC 700294; experiment: Minimal inhibitory concentration assay (microbroth dilution); format: cell-based
How it was run: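 CLSI broth microdilution: two-fold serial compound dilutions in appropriate broth, inoculated and incubated aerobically overnight at 37° C. MIC read visually as lowest concentration preventing bacterial growth.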

[2] = Cytotoxicity assay (CellTiter-Glo cell viability, 72 hours); format: cell-based; settings: African green monkey
How it was run: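 Vero cells, 5000/well, grown overnight at 37° C, 5% CO2 in DMEM with 10% FBS, then exposed to serial compound dilutions or DMSO for 72 hours. Viability read by CellTiter-Glo luminescence. IC50 from duplicate wells, reported as range over two independent experiments.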

[3] = Streptococcus pyogenes, ATCC700294; read-out: Minimal Inhibitory Concentrations S. pyogenes ATCC 700294
[4] = Streptococcus pyogenes, ATCC700294, read-out: Minimal Inhibitory Concentrations S. pyogenes ATCC 700294
[5] = Vero cells, 72 hours, growth inhibition, read-out: Cytotoxicity IC50
[6] = displacement of FP probe ADEP 2591 from Sa-ClpP, read-out: ADEP Displacement IC50

SMILES | IC50 (Sa-ClpP) | MIC [1, 3] | IC50 at 72 h [2] | MIC [1, 4] | IC50 at 72 h [2, 5] | IC50 (Sa-ClpP; [6])
C[C@H]1C[C@H]2C(=O)O[C@@H](C)[C@H](NC(=O)[C@H](Cc3cc(F)cc(F)c3)NC(=O)Nc3ccc(OC(F)(F)F)cc3)C(=O)N3CCC[C@H]3C(=O)N(C)[C@@H]([C@@H](C)O)C(=O)N[C@@H](C)C(=O)N2C1 [Compound 36, (S)-3-(3,5-difluorophenyl)-N-((2S,6S,9S,11aS,17S,18S,20aS)-9-((R)-1-hydroxyethyl)-2,6,10,18-tetramethyl-5,8,11,16,20-pentaoxohexadecahydro-1H,5H,16H-dipyrrolo[2,1-c:2′,1′-l][1]oxa[4,7,10,13]tetraazacyclohexadecin-17-yl)-2-(3-(4-(trifluoromethoxy)phenyl)ureido)propanamide] ({NH(4-OCF3-phenyl)-CO}-[Phe(3,5-F2)][aThr]P[NMeT]A[Pro(4S-Me)]; ester 2-C) | 6.4 ± 0.5 µM | 0.2 µM (≈ 0.176 µg/mL) | 25.4 ± 1.8 µM |  |  | 
CCc1ccc(NC(=O)N[C@@H](Cc2cc(F)cc(F)c2)C(=O)N[C@@H]2C(=O)N3CCC[C@H]3C(=O)N(C)[C@@H]([C@@H](C)O)C(=O)N[C@@H](C)C(=O)N3C[C@@H](C)C[C@H]3C(=O)O[C@H]2C)cc1 [Compound 37, (S)-3-(3,5-difluorophenyl)-2-(3-(4-ethylphenyl)ureido)-N-((2S,6S,9S,11aS,17S,18S,20aS)-9-((R)-1-hydroxyethyl)-2,6,10,18-tetramethyl-5,8,11,16,20-pentaoxohexadecahydro-1H,5H,16H-dipyrrolo[2,1-c:2′,1′-l][1]oxa[4,7,10,13]tetraazacyclohexadecin-17-yl)propanamide] ({NH(4-Et-phenyl)-CO}-[Phe(3,5-F2)][aThr]P[NMeT]A[Pro(4S-Me)]; ester 2-C) | 7 ± 0.4 µM | 0.1 µM (≈ 0.0826 µg/mL) | 33.8 ± 1.6 µM |  |  | 
Cc1ccc(NC(=O)N[C@@H](Cc2cc(F)cc(F)c2)C(=O)N[C@@H]2C(=O)N3CCC[C@H]3C(=O)N(C)[C@@H]([C@@H](C)O)C(=O)N[C@@H](C)C(=O)N3C[C@H](C)C[C@H]3C(=O)O[C@H]2C)cc1 [Compound 38, (S)-3-(3,5-difluorophenyl)-N-((2R,6S,9S,11aS,17S,18S,20aS)-9-((R)-1-hydroxyethyl)-2,6,10,18-tetramethyl-5,8,11,16,20-pentaoxohexadecahydro-1H,5H,16H-dipyrrolo[2,1-c:2′,1′-l][1]oxa[4,7,10,13]tetraazacyclohexadecin-17-yl)-2-(3-(p-tolyl)ureido)propanamide] ({NH(4-Me-phenyl)-CO}-[Phe(3,5-F2)][aThr]P[NMeT]A[Pro(4R-Me)]; ester 2-C) | 6.52 ± 0.3 µM |  |  | 0.1 µM (≈ 0.0812 µg/mL) | 46.1 ± 5.5 µM | 
C[C@@H]1C[C@H]2C(=O)O[C@@H](C)[C@H](NC(=O)[C@H](Cc3cc(F)cc(F)c3)NC(=O)Nc3ccc(OC(F)(F)F)cc3)C(=O)N3CCC[C@H]3C(=O)N(C)[C@@H]([C@@H](C)O)C(=O)N[C@@H](C)C(=O)N2C1 [Compound 41, (S)-3-(3,5-difluorophenyl)-N-((2R,6S,9S,11aS,17S,18S,20aS)-9-((R)-1-hydroxyethyl)-2,6,10,18-tetramethyl-5,8,11,16,20-pentaoxohexadecahydro-1H,5H,16H-dipyrrolo[2,1-c:2′,1′-l][1]oxa[4,7,10,13]tetraazacyclohexadecin-17-yl)-2-(3-(4-(trifluoromethoxy)phenyl)ureido)propanamide] ({NH(4-OCF3-phenyl)-CO}-[Phe(3,5-F2)][aThr]P[NMeT]A[Pro(4R-Me)]; ester 2-C) | 7.53 ± 0.2 µM | 0.1 µM (≈ 0.0882 µg/mL) | 23.9 ± 2 µM |  |  | 
CCc1ccc(NC(=O)N[C@@H](Cc2cc(F)cc(F)c2)C(=O)N[C@@H]2C(=O)N3CCC[C@H]3C(=O)N(C)[C@@H]([C@@H](C)O)C(=O)N[C@@H](C)C(=O)N3C[C@H](C)C[C@H]3C(=O)O[C@H]2C)cc1 [Compound 42, (S)-3-(3,5-difluorophenyl)-2-(3-(4-ethylphenyl)ureido)-N-((2R,6S,9S,11aS,17S,18S,20aS)-9-((R)-1-hydroxyethyl)-2,6,10,18-tetramethyl-5,8,11,16,20-pentaoxohexadecahydro-1H,5H,16H-dipyrrolo[2,1-c:2′,1′-l][1]oxa[4,7,10,13]tetraazacyclohexadecin-17-yl)propanamide] ({NH(4-Et-phenyl)-CO}-[Phe(3,5-F2)][aThr]P[NMeT]A[Pro(4R-Me)]; ester 2-C) | 7.12 ± 0.2 µM | 0.05 µM (≈ 0.0413 µg/mL) | 24.9 ± 2.6 µM |  |  | 
Cc1ccc(NC(=O)N[C@@H](Cc2cc(F)cc(F)c2)C(=O)N[C@@H]2C(=O)N3CCC[C@H]3C(=O)N(C)[C@@H]([C@@H](C)OP(=O)(O)O)C(=O)N[C@@H](C)C(=O)N3C[C@@H](C)C[C@H]3C(=O)O[C@H]2C)cc1 [Compound 188, (R)-1-((2S,6S,9S,11aS,17S,18S,20aS)-17-((S)-3-(3,5-difluorophenyl)-2-(3-(p-tolyl)ureido)propanamido)-2,6,10,18-tetramethyl-5,8,11,16,20-pentaoxohexadecahydro-1H,5H,16H-dipyrrolo[2,1-c:2′,1′-l][1]oxa[4,7,10,13]tetraazacyclohexadecin-9-yl)ethyl dihydrogen phosphate] ({NH(4-Me-phenyl)-CO}-[Phe(3,5-F2)][aThr]P[NMepT]A[Pro(4S-Me)]; ester 2-C) | 13.7 ± 0.6 µM |  |  | 50 µM | > 100 µM | 
C[C@@H]1C[C@H]2C(=O)OC[C@H](NC(=O)[C@H](Cc3ccccc3)NC(=O)Nc3ccc4c(c3)OCO4)C(=O)N3CCC[C@H]3C(=O)N3CCCC[C@H]3C(=O)N[C@@H](C)C(=O)N2C1 [Compound 194, (S)-2-(3-(benzo[d][1,3]dioxol-5-yl)ureido)-N-((2R,6S,8aS,14aS,20S,23aS)-2,6-dimethyl-5,8,14,19,23-pentaoxooctadecahydro-1H,5H,14H,19H-pyrido[2,1-i]dipyrrolo[2,1-c:2′,1′-l][1]oxa[4,7,10,13]tetraazacyclohexadecin-20-yl)-3-phenylpropanamide] | 8 ± 0.6 µM | < 0.2 µM | > 100 µM |  |  | 
C[C@@H]1C[C@H]2C(=O)OC[C@H](NC(=O)[C@H](Cc3cc(F)cc(F)c3)NC(=O)Nc3ccc4c(c3)OCO4)C(=O)N3CCC[C@H]3C(=O)N3CCCC[C@H]3C(=O)N[C@@H](C)C(=O)N2C1 [Compound 195, (S)-2-(3-(benzo[d][1,3]dioxol-5-yl)ureido)-3-(3,5-difluorophenyl)-N-((2R,6S,8aS,14aS,20S,23aS)-2,6-dimethyl-5,8,14,19,23-pentaoxooctadecahydro-1H,5H,14H,19H-pyrido[2,1-i]dipyrrolo[2,1-c:2′,1′-l][1]oxa[4,7,10,13]tetraazacyclohexadecin-20-yl)propanamide] | 5.8 ± 0.2 µM | 0.3 µM (≈ 0.247 µg/mL) | 84.1 ± 8.3 µM |  |  | 
C[C@H]1C[C@H]2C(=O)O[C@@H](C)[C@H](NC(=O)[C@H](Cc3cc(F)cc(F)c3)NC(=O)Nc3ccc(OC(F)(F)F)cc3)C(=O)N3CCC[C@H]3C(=O)N3CCOC[C@H]3C(=O)N[C@@H](C)C(=O)N2C1 [Compound 201, (S)-3-(3,5-difluorophenyl)-2-(3-(4-(trifluoromethoxy)phenyl)ureido)-N-((6aS,12S,13S,15aS,17S,21S,23aS)-13,17,21-trimethyl-6,11,15,20,23-pentaoxooctadecahydro-6H,11H,15H-[1,4]oxazino[3,4-i]dipyrrolo[2,1-c:2′,1′-l][1]oxa[4,7,10,13]tetraazacyclohexadecin-12-yl)propanamide] ({NH(4-OCF3-phenyl)-CO}-[Phe(3,5-F2)][aThr]P[Morpholine(3S-CO)]A[Pro(4S-Me)]; ester 2-C) |  | 0.098 µM (≈ 0.0862 µg/mL) | 26 ± 2.6 µM |  |  | 6.1 ± 0.4 µM
Cc1ccc(NC(=O)N[C@@H](Cc2cc(F)cc(F)c2)C(=O)N[C@@H]2C(=O)N3CCC[C@H]3C(=O)N(C)[C@@H]([C@H](C)O)C(=O)N[C@@H](C)C(=O)N3C[C@@H](C)C[C@H]3C(=O)O[C@H]2C)cc1 [Compound 202, (S)-3-(3,5-difluorophenyl)-N-((2S,6S,9S,11aS,17S,18S,20aS)-9-((S)-1-hydroxyethyl)-2,6,10,18-tetramethyl-5,8,11,16,20-pentaoxohexadecahydro-1H,5H,16H-dipyrrolo[2,1-c:2′,1′-L][1]oxa[4,7,10,13]tetraazacyclohexadecin-17-yl)-2-(3-(p-tolyl)ureido)propanamide] ({NH(4-Me-phenyl)-CO}-[Phe(3,5-F2)][aThr]P[NMeaThr]A[Pro(4S-Me)]; ester 2-C) |  |  |  | 0.391 µM (≈ 0.317 µg/mL) | 55.7 ± 3.6 µM | 6.6 ± 0.4 µM
C[C@H]1C[C@H]2C(=O)O[C@@H](C)[C@H](NC(=O)[C@H](Cc3cc(F)cc(F)c3)NC(=O)Nc3ccc(OC(F)(F)F)cc3)C(=O)N3CCC[C@H]3C(=O)N(C)[C@@H]([C@H](C)O)C(=O)N[C@@H](C)C(=O)N2C1 [Compound 203, (S)-3-(3,5-difluorophenyl)-N-((2S,6S,9S,11aS,17S,18S,20aS)-9-((S)-1-hydroxyethyl)-2,6,10,18-tetramethyl-5,8,11,16,20-pentaoxohexadecahydro-1H,5H,16H-dipyrrolo[2,1-c:2′,1′-l][1]oxa[4,7,10,13]tetraazacyclohexadecin-17-yl)-2-(3-(4-(trifluoromethoxy)phenyl)ureido)propanamide] ({NH(4-OCF3-phenyl)-CO}-[Phe(3,5-F2)][aThr]P[NMeaThr]A[Pro(4S-Me)]; ester 2-C) |  | 0.195 µM (≈ 0.172 µg/mL) | 25.4 ± 1.8 µM |  |  | 6.4 ± 0.5 µM
